Results as given in PMC11926880, “Procognitive Potential of Neuroprotective Triazine 5-HT6 Receptor Antagonists Tested on Chronic Activity In Vivo in Rats: Computer-Aided Insight into the Role of Chalcogen-Differences on the Pharmacological Profile” (ACS Chemical Neuroscience, 2025).
“And” between values parts separate entries of the source, which are not always exact repeats. Equal entries are not always repeated. Where two headings read alike, the source gives them in different places.

Experiment: tissue distribution pharmacokinetics after single i.p. administration
Format: in vivo, rat
Design: Cmax: unit: ng/g
Method: Standard laboratory food (LSM-B) and filtered water as well as environment enrichment were freely available. Animals were randomly divided into treatment groups using a computer-based random order generator. All of the experiments were performed by two observers unaware of the treatment applied between 9:00 and 14:00 on separate groups of animals. Rats were injected with the investigated compounds once (in pharmacokinetic studies) and for 21 days (in behavioral studies), and afterward, behavioral tests were conducted and tissue collection was done, as required. For pharmacokinetic studies, animals were fasted prior to dosing by withholding food but not water overnight. After dosing, the food was withheld for an additional 8 h. All animals were used only once. Animals were handled every day and weighed every other day in the chronic part of the experiment. Procedures involving animals and their care were conducted in accordance with current European Community and Polish legislations on animal experimentation. Additionally, all efforts were made to minimize animals' suffering and to use only the number of animals necessary to produce reliable scientific data. The experimental protocols and procedures described were approved by the I Local Ethics Commission in Cracow (nos 309/2019 and 765/2023) and complied with the European Communities Council Directive of 24 November 24, 1986 (86/609/EEC) and were in accordance with the 1996 NIH Guide for the Care and Use of Laboratory Animals. The research program complies with the commonly accepted '3Rs' (replacement and reduction of animals, refinement of experimental conditions, and procedures to minimize the harm to animals). […] Moreover, five tissues (i.e., brain, heart, lungs, kidneys, and liver) were harvested and rinsed with cold saline. Blood was allowed to clot at room temperature for 15-20 min and then centrifuged (3000 rpm for 10 min). The obtained serum and tissues were stored at -80 °C until analysis. […] HPLC analysis with UV detection at 221 nm was performed at a 1 mL/min flow rate, and the column temperature was 38 °C. Before analysis, tissue samples were thawed, weighed (200-250 mg), and placed in 5 mL plastic tubes with four volumes (w/v) of PBS (pH 7.4) and homogenized individually using a […]-1 homogenizer (ART Prozess & Labortechnik GmbH & Co., Germany). […] The samples were alkalized with 50 μL of 4 M sodium hydroxide solution, vortex-mixed, and extracted with 1 mL of ethyl acetate/hexane (30/70, v/v) mixture on a shaker (VXR Vibrax, IKA, Germany) for 20 min. […] Then, the samples were shaken and centrifuged again. Finally, 60-90 μL of each acidic layer was injected into the HPLC system. […] The interday and intraday precision and accuracy of quality control samples evaluated in the serum and tissue homogenates were within 15%. […] The area under the serum concentration-time curve from time zero to time t (AUC0-t), where t is the time of the last measurable sample, was calculated according to the linear trapezoidal rule. The AUC from time zero to infinity (AUC0-∞) was estimated as AUC0-t + Ct/λz, where Ct was the serum concentration of the last measurable sample. The clearance (CL/F) was calculated as D/AUC0-∞, and the volume of distribution based on the terminal phase (Vz/F) was estimated as D/(λz·AUC0-∞), where F is the bioavailability of intraperitoneal administration. The MRT is calculated to be […], where AMUC0-∞ is the area under the first moment curve from the time of dosing to infinity. The peak serum concentration (Cmax) and the time to reach Cmax (Tmax) were read directly from the observations. […] Data were presented as mean ± SD.

## CN1CCN(c2nc(N)nc(C(C)(C)Sc3ccc4ccccc4c3)n2)CC1 [WA-22, 4-(4-methylpiperazin-1-yl)-6-(2-(naphthalen-2-ylthio)propan-2-yl)-1,3,5-triazin-2-amine]
1 mg/kg i.p.
  time after administration at which still detected in all analyzed rat organs: 240 min
brain, 0.3 mg/kg i.p.
  AUC0–t: 1575.82 ± 182.54 ng·min/g
  t0.5λz: 48.35 ± 4.46 min
brain, 0.3 mg/kg i.p., 0.3 mg/kg
  Tmax: 11.67 ± 5.77 min
brain, 1.0 mg/kg i.p., 1 mg/kg
  Cmax: 114.79 ± 39.16 ng/g
  Tmax: 8.33 ± 5.77 min
  t0.5λz: 110.31 min and 110.31 ± 24.35 min
heart, 0.3 mg/kg i.p.
  AUC0–t: 1670.68 ± 385.10 ng·min/g
  t0.5λz: 84.99 ± 19.47 min
heart, 1.0 mg/kg i.p.
  AUC0–t: 6013.14 ± 2336.18 ng·min/g
  t0.5λz: 122.04 ± 18.30 min
i.p. administration
  fraction cleared in rat tissues and serum at 120 min: 80–95%
kidneys, 0.3 mg/kg i.p.
  AUC0–t: 3276.54 ± 1455.54 ng·min/g
  t0.5λz: 67.32 ± 12.95 min
kidneys, 1.0 mg/kg i.p.
  AUC0–t: 12540.07 ± 4826.76 ng·min/g
kidneys, 1.0 mg/kg i.p., 1 mg/kg
  t0.5λz: 122 min and 121.93 ± 44.52 min
liver, 0.3 mg/kg i.p.
  AUC0–t: 3993.81 ± 1308.63 ng·min/g
  t0.5λz: 48.07 ± 6.68 min
liver, 1.0 mg/kg i.p.
  AUC0–t: 14056.00 ± 8075.06 ng·min/g
liver, 1.0 mg/kg i.p., 1 mg/kg
  t0.5λz: 109 min and 108.96 ± 17.84 min
lungs, 0.3 mg/kg i.p.
  AUC0–t: 9320.95 ± 1906.43 ng·min/g
  t0.5λz: 105.43 ± 5.42 min
lungs, 1.0 mg/kg i.p.
  AUC0–t: 33528.62 ± 5691.73 ng·min/g
  t0.5λz: 96.48 ± 13.43 min
male, Wistar, rat, brain (relative to serum), ip, i.p. administration, read-out: brain-to-serum AUC ratio
  Kp: ~2.17
male, Wistar, rat, brain, ip, 0.3 mg/kg, brain, 0.3 mg/kg i.p., read-out: Cmax
  Cmax: 30.7 ± 3.28 ng/g
male, Wistar, rat, brain, ip, 0.3 mg/kg, brain, 0.3 mg/kg i.p., read-out: Tmax (converted)
  Tmax: 12 min
male, Wistar, rat, brain, ip, 1 mg/kg, brain, 1.0 mg/kg i.p., read-out: Cmax
  Cmax: 115 ± 39.2 ng/g
male, Wistar, rat, brain, ip, 1 mg/kg, brain, 1.0 mg/kg i.p., read-out: Tmax (converted)
  Tmax: 8 min
male, Wistar, rat, brain/serum, ip, 0.3 mg/kg, brain, 0.3 mg/kg i.p., read-out: AUC ratio (tissue-to-serum AUC0–t)
  Kp: 1.89 ± 0.34
male, Wistar, rat, brain/serum, ip, 1 mg/kg, brain, 1.0 mg/kg i.p., read-out: AUC ratio (tissue-to-serum AUC0–t)
  Kp: 2.46 ± 1.32
male, Wistar, rat, brain/serum, ip, 1 mg/kg, brain-to-serum, 1 mg/kg i.p., read-out: AUC0–∞ (ng·h/g)/AUC0–∞ (ng·h/mL)
  Kp: 2.14 ± 1.18
male, Wistar, rat, brain/serum, ip, 1 mg/kg, brain-to-serum, 1 mg/kg i.p., read-out: Cmax (ng/g)/Cmax (ng/mL)
  Kp: 1.99 ± 1.61
male, Wistar, rat, heart, ip, 0.3 mg/kg, heart, 0.3 mg/kg i.p., read-out: Cmax
  Cmax: 37.5 ± 6.65 ng/g
male, Wistar, rat, heart, ip, 0.3 mg/kg, heart, 0.3 mg/kg i.p., read-out: Tmax (converted)
  Tmax: 5 min
male, Wistar, rat, heart, ip, 1 mg/kg, heart, 1.0 mg/kg i.p., read-out: Cmax
  Cmax: 172 ± 74.7 ng/g
male, Wistar, rat, heart, ip, 1 mg/kg, heart, 1.0 mg/kg i.p., read-out: Tmax (converted)
  Tmax: 5 min
male, Wistar, rat, heart/serum, ip, 0.3 mg/kg, heart, 0.3 mg/kg i.p., read-out: AUC ratio (tissue-to-serum AUC0–t)
  Kp: 2 ± 0.52
male, Wistar, rat, heart/serum, ip, 1 mg/kg, heart, 1.0 mg/kg i.p., read-out: AUC ratio (tissue-to-serum AUC0–t)
  Kp: 2.63 ± 1.69
male, Wistar, rat, heart/serum, ip, 1 mg/kg, heart-to-serum, 1 mg/kg i.p., read-out: AUC0–∞ (ng·h/g)/AUC0–∞ (ng·h/mL)
  Kp: 2.09 ± 2.71
male, Wistar, rat, heart/serum, ip, 1 mg/kg, heart-to-serum, 1 mg/kg i.p., read-out: Cmax (ng/g)/Cmax (ng/mL)
  Kp: 2.61 ± 1.09
male, Wistar, rat, ip, brain, 0.3 mg/kg i.p.
  MRT: 64.4 min
male, Wistar, rat, ip, brain, 1.0 mg/kg i.p.
  MRT: 90.6 min
male, Wistar, rat, ip, heart, 0.3 mg/kg i.p.
  MRT: 104 min
male, Wistar, rat, ip, heart, 1.0 mg/kg i.p.
  MRT: 109 min
male, Wistar, rat, ip, kidneys, 0.3 mg/kg i.p.
  MRT: 85.3 min
male, Wistar, rat, ip, kidneys, 1.0 mg/kg i.p.
  MRT: 107 min
male, Wistar, rat, ip, liver, 0.3 mg/kg i.p.
  MRT: 40.6 min
male, Wistar, rat, ip, liver, 1.0 mg/kg i.p.
  MRT: 51.3 min
male, Wistar, rat, ip, lungs, 0.3 mg/kg i.p.
  MRT: 130 min
male, Wistar, rat, ip, lungs, 1.0 mg/kg i.p.
  MRT: 72.6 min
male, Wistar, rat, kidneys, ip, 0.3 mg/kg, kidneys, 0.3 mg/kg i.p., read-out: Cmax
  Cmax: 72.3 ± 27.1 ng/g
male, Wistar, rat, kidneys, ip, 0.3 mg/kg, kidneys, 0.3 mg/kg i.p., read-out: Tmax (converted)
  Tmax: 5 min
male, Wistar, rat, kidneys, ip, 1 mg/kg, kidneys, 1.0 mg/kg i.p., read-out: Cmax
  Cmax: 247 ± 119 ng/g
male, Wistar, rat, kidneys, ip, 1 mg/kg, kidneys, 1.0 mg/kg i.p., read-out: Tmax (converted)
  Tmax: 5 min
male, Wistar, rat, kidneys/serum, ip, 0.3 mg/kg, kidneys, 0.3 mg/kg i.p., read-out: AUC ratio (tissue-to-serum AUC0–t)
  Kp: 3.93 ± 1.88
male, Wistar, rat, kidneys/serum, ip, 1 mg/kg, kidneys, 1.0 mg/kg i.p., read-out: AUC ratio (tissue-to-serum AUC0–t)
  Kp: 5.47 ± 3.33
male, Wistar, rat, kidneys/serum, ip, 1 mg/kg, kidneys-to-serum, 1 mg/kg i.p., read-out: AUC0–∞ (ng·h/g)/AUC0–∞ (ng·h/mL)
  Kp: 4.96 ± 3.2
male, Wistar, rat, kidneys/serum, ip, 1 mg/kg, kidneys-to-serum, 1 mg/kg i.p., read-out: Cmax (ng/g)/Cmax (ng/mL)
  Kp: 3.41 ± 0.59
male, Wistar, rat, liver (relative to serum), ip, 1 mg/kg, liver, 1.0 mg/kg i.p., read-out: AUC ratio (tissue-to-serum AUC0–t)
  Kp: 6.32 ± 4.96
male, Wistar, rat, liver, ip, 0.3 mg/kg, liver, 0.3 mg/kg i.p., read-out: Cmax
  Cmax: 149 ± 34.8 ng/g
male, Wistar, rat, liver, ip, 0.3 mg/kg, liver, 0.3 mg/kg i.p., read-out: Tmax (converted)
  Tmax: 5 min
male, Wistar, rat, liver, ip, 1 mg/kg, liver, 1.0 mg/kg i.p., read-out: Cmax
  Cmax: 404 ± 101 ng/g
male, Wistar, rat, liver, ip, 1 mg/kg, liver, 1.0 mg/kg i.p., read-out: Tmax (converted)
  Tmax: 5 min
male, Wistar, rat, liver/serum, ip, 0.3 mg/kg, liver, 0.3 mg/kg i.p., read-out: AUC ratio (tissue-to-serum AUC0–t)
  Kp: 4.75 ± 1.57
male, Wistar, rat, liver/serum, ip, 1 mg/kg, liver-to-serum, 1 mg/kg i.p., read-out: AUC0–∞ (ng·h/g)/AUC0–∞ (ng·h/mL)
  Kp: 5.11 ± 3.85
male, Wistar, rat, liver/serum, ip, 1 mg/kg, liver-to-serum, 1 mg/kg i.p., read-out: Cmax (ng/g)/Cmax (ng/mL)
  Kp: 6.3 ± 2.69
male, Wistar, rat, lungs (relative to serum), ip, 1 mg/kg, lungs, 1.0 mg/kg i.p., read-out: AUC ratio (tissue-to-serum AUC0–t)
  Kp: 14.1 ± 5.62
male, Wistar, rat, lungs, ip, 0.3 mg/kg, lungs, 0.3 mg/kg i.p., read-out: Cmax
  Cmax: 214 ± 45.7 ng/g
male, Wistar, rat, lungs, ip, 0.3 mg/kg, lungs, 0.3 mg/kg i.p., read-out: Tmax (converted)
  Tmax: 5 min
male, Wistar, rat, lungs, ip, 1 mg/kg, lungs, 1.0 mg/kg i.p., read-out: Cmax
  Cmax: 744 ± 88.9 ng/g
male, Wistar, rat, lungs, ip, 1 mg/kg, lungs, 1.0 mg/kg i.p., read-out: Tmax (converted)
  Tmax: 5 min
male, Wistar, rat, lungs/serum, ip, 0.3 mg/kg, lungs, 0.3 mg/kg i.p., read-out: AUC ratio (tissue-to-serum AUC0–t)
  Kp: 11.1 ± 2.57
male, Wistar, rat, lungs/serum, ip, 1 mg/kg, lungs-to-serum, 1 mg/kg i.p., read-out: AUC0–∞ (ng·h/g)/AUC0–∞ (ng·h/mL)
  Kp: 13.9 ± 7.95
male, Wistar, rat, lungs/serum, ip, 1 mg/kg, lungs-to-serum, 1 mg/kg i.p., read-out: Cmax (ng/g)/Cmax (ng/mL)
  Kp: 15 ± 7.31
